According to patent US9738653B2, “Fused furans for the treatment of hepatitis C” (BRISTOL-MYERS SQUIBB COMPANY, priority 2013, dated 2017):

Columns and labels:
[1] = system: genotype 1b (Con-1) HCV replicon in Huh-7 cells; assay: HCV replicon luciferase assay; type: cell-based; conditions: 1b replicon, Renilla luciferase, 3 days incubation
Description: The cell lines used to evaluate compounds consist of a human hepatocyte derived cell line (Huh-7) that constitutively expresses a genotype 1b (Con-1) HCV replicon or a genotype 1b (Con-1) HCV replicon with an asparagine replacing the cysteine at amino acid 316, or a genotype 2a (JFH-1) replicon, containing a Renilla luciferase reporter gene. These cells were maintained in Dulbecco's modified Eagle medium (DMEM) containing 10% FBS, 100 U/mL penicillin/streptomycin and 1.0 mg/mL G418.
To evaluate compound efficacy, titrated compounds were transferred to sterile 384-well tissue culture treated plates, and the plates were seeded with HCV replicon cells ([…] at a density of 2.4×10^3 cells/well) in DMEM containing 4% FBS (final DMSO concentration at 0.5%). After 3 days incubation at 37° C., cells were analyzed for Renilla Luciferase activity using the EnduRen substrate (Promega cat #E6485) according to the manufacturer's directions. Briefly, the EnduRen substrate was diluted in DMEM and then added to the plates to a final concentration of 7.5 μM. The plates were incubated for at least 1 h at 37° C. then read on a Viewlux Imager (PerkinElmer) using a luminescence program. The 50% effective concentration (EC50) was calculated using the four-parameter logistic formula noted above.

[2] = target: T1, HCV NS5B genotype 1b (Con1) (Hepatitis C virus genotype 1b, UniProt Q9WMX2); assay: HCV NS5B RdRp enzyme assay; type: biochemical; conditions: 1b enzyme, 24 hours at 30° C.
T1 construct: Each untagged protein was expressed with an 18 amino acid C-terminal truncation to enhance the solubility; made in house; host or cells: E. coli BL21(DE3), pET21a
Description: The cDNA encoding NS5B proteins of HCV genotype 1b (Con1), a genotype 1b variant with amino acid 316 mutated from cysteine to asparagine, and genotype 2a (JFH-1), were cloned into the pET21a expression vector. Each untagged protein was expressed with an 18 amino acid C-terminal truncation to enhance the solubility. The E. coli competent cell line BL21(DE3) was used for expression of the protein. Cultures were grown at 37° C. for ˜4 hours until the cultures reached an optical density of 2.0 at 600 nm. The cultures were cooled to 20° C. and induced with 1 mM IPTG. Fresh ampicillin was added to a final concentration of 50 μg/mL and the cells were grown overnight at 20° C.
The lysis buffer consisted of 20 mM Tris-HCl, pH 7.4, 500 mM NaCl, 0.5% triton X-100, 1 mM DTT, 1 mM EDTA, 20% glycerol, 0.5 mg/mL lysozyme, 10 mM MgCl2, 15 ug/mL deoxyribonuclease I, and Complete™ protease inhibitor tablets (Roche). After addition of the lysis buffer, frozen cell pellets were resuspended using a tissue homogenizer. To reduce the viscosity of the sample, aliquots of the lysate were sonicated on ice using a microtip attached to a Branson sonicator. The sonicated lysate was centrifuged at 100,000×g for 30 minutes at 4° C. and filtered through a 0.2 μm filter unit (Corning).
The protein was purified using two sequential chromatography steps: Heparin sepharose CL-6B and polyU sepharose 4B. The chromatography buffers were identical to the lysis buffer but contained no lysozyme, deoxyribonuclease I, MgCl2 or protease inhibitor and the NaCl concentration of the buffer was adjusted according to the requirements for charging the protein onto the column. Each column was eluted with a NaCl gradient which varied in length from 5-50 column volumes depending on the column type. […] The enzyme was aliquoted and stored at −80° C.
An on-bead solid phase homogeneous assay was used in a 384-well format to assess NS5B inhibitors (WangY-K, Rigat K, Roberts S, and Gao M (2006) Anal Biochem, 359: 106-111). The biotinylated oligo dT12 primer was captured on streptavidin-coupled imaging beads (GE, RPNQ0261) by mixing primer and beads in 1× buffer and incubating at room temperature for three hours. Unbound primer was removed after centrifugation. The primer-bound beads were resuspended in 3× reaction mix (20 mM Hepes buffer, pH 7.5, dT primer coupled beads, poly A template, ^3H-UTP, and RNAse inhibitor (Promega N2515)). Compounds were serially diluted 1:3 in DMSO and aliquoted into assay plates. Equal volumes (5 μL) of water, 3× reaction mix, and enzyme in 3× assay buffer (60 mM Hepes buffer, pH 7.5, 7.5 mM MgCl2, 7.5 mM KCl, 3 mM DTT, 0.03 mg/mL BSA, 6% glycerol) were added to the diluted compound on the assay plate. Final concentration of components in 384-well assay: 0.36 nM template, 15 nM primer, 0.29 μM ^3H-UTP (0.3 μCi, 1.6 U/μL RNAse inhibitor, 7 nM NS5B enzyme, 0.01 mg/mL BSA, 1 mM DTT, and 0.33 μg/μL beads, 20 mM Hepes buffer, pH 7.5, 2.5 mM MgCl2, 2.5 mM KCl, and 0.1% DMSO.
Reactions were allowed to proceed for 24 hours at 30° C. and terminated by the addition of 50 mM EDTA (5 μL). After incubating for at least 15 minutes, plates were read on an Amersham LEADseeker multimodality imaging system.
IC50 values for compounds were determined using ten different [I]. IC50 values were calculated from the inhibition using the four-parameter logistic formula y=A+((B−A)/(1+((C/x)^D))), where A and B denote minimal and maximal % inhibition, respectively, C is the IC50, D is hill slope and x represents compound concentration.

T1 sequence (Q9WMX2 2420-2992): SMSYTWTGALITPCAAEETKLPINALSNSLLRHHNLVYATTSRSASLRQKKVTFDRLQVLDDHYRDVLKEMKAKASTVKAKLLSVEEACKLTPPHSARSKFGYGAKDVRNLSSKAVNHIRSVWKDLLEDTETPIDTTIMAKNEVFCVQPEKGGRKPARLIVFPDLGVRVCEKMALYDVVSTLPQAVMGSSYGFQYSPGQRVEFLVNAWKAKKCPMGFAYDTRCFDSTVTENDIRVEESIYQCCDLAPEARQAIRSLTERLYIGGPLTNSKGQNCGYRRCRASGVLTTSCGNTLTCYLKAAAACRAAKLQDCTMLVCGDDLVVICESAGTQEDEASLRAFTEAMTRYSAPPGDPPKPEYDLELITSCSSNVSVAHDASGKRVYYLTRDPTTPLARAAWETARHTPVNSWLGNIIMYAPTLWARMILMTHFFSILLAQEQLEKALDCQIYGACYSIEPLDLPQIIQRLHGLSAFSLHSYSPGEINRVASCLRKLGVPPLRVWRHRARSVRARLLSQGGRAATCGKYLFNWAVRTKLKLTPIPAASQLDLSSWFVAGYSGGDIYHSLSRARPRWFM

CCNc1cc2oc(-c3ccc(F)cc3)c(C(=O)NC)c2cc1-c1cc(C(=O)NC23CC(C2)C3)c(F)cc1F
EC50 ([1]; Hepatitis C virus, Huh-7, 72 h): 10 nM | IC50 [2]: 20 nM

CCC(C)c1cc2oc(-c3ccc(F)cc3)c(C(=O)NC)c2cc1-c1cccc(C(=O)NC23CC(C2)C3)c1 (stereo not drawn) [drawing 304]
EC50 ([1]; Hepatitis C virus, Huh-7, 72 h): 10 nM | IC50 [2]: 5.87 nM

CNC(=O)c1c(-c2ccc(F)cc2)oc2cc(CCCF)c(-c3cccc(C(=O)NC45CC(C4)C5)c3)cc12
EC50 ([1]; Hepatitis C virus, Huh-7, 72 h): 3.33 nM | IC50 [2]: 3.29 nM

CNC(=O)c1c(-c2ccc(F)cc2)oc2nc(CCC(F)(F)F)c(-c3ccc(OC)c(C(=O)NC45CC(C4)C5)c3)cc12
EC50 ([1]; Hepatitis C virus, Huh-7, 72 h): 9.23 nM | IC50 [2]: 10 nM

CNC(=O)c1c(-c2ccc(F)cc2)oc2nc(NCC(F)(F)F)c(-c3ccc(OC)c(C(=O)NC45CC(C4)C5)c3)cc12
EC50 ([1]; Hepatitis C virus, Huh-7, 72 h): 3.72 nM | IC50 [2]: 20 nM

CNC(=O)c1c(-c2ccc(F)cc2)oc2nc(NCC(F)F)c(-c3ccc(OC)c(C(=O)NC45CC(C4)C5)c3)cc12
EC50 ([1]; Hepatitis C virus, Huh-7, 72 h): 6.23 nM | IC50 [2]: 8.87 nM

CNC(=O)c1c(-c2ccc(F)cc2)oc2cc(CCC(F)(F)F)c(-c3cc(C(=O)NC45CC(C4)C5)c(OC)cc3C)cc12
EC50 ([1]; Hepatitis C virus, Huh-7, 72 h): 40 nM | IC50 [2]: 50 nM

CNC(=O)c1c(-c2ccc(F)cc2)oc2nc(CCC(F)(F)F)c(-c3cc(F)cc(C(=O)NC45CC(C4)C5)c3)cc12
EC50 ([1]; Hepatitis C virus, Huh-7, 72 h): 10 nM | IC50 [2]: 30 nM

CNC(=O)c1c(-c2ccc(F)cc2)oc2nc(NCC(F)(F)F)c(-c3cccc(C(=O)NC45CC(C4)C5)c3)cc12
EC50 ([1]; Hepatitis C virus, Huh-7, 72 h): 3.58 nM

CCCc1cc2oc(-c3ccc(F)cc3)c(C(=O)NC)c2cc1-c1cc(C(=O)NC23CC(C2)C3)c(F)cc1C
EC50 ([1]; Hepatitis C virus, Huh-7, 72 h): 30 nM | IC50 [2]: 20 nM

CCCc1nc2oc(-c3ccc(F)cc3)c(C(=O)NC)c2cc1-c1cccc(C(=O)NC23CC(C2)C3)c1
EC50 ([1]; Hepatitis C virus, Huh-7, 72 h): 5.26 nM | IC50 [2]: 7.73 nM

CCCc1cc2oc(-c3ccc(F)cc3)c(C(=O)NC)c2cc1-c1cc(C(=O)NC23CC(C2)C3)c(OC)cc1C
EC50 ([1]; Hepatitis C virus, Huh-7, 72 h): 30 nM | IC50 [2]: 30 nM

CNC(=O)c1c(-c2ccc(F)cc2)oc2nc(OC)c(-c3ccc(F)c(C(=O)NC45CC(C4)C5)c3)cc12
EC50 ([1]; Hepatitis C virus, Huh-7, 72 h): 20 nM | IC50 [2]: 90 nM

CNC(=O)c1c(-c2ccc(F)cc2)oc2cc(CS(C)(=O)=O)c(-c3ccc(F)c(C(=O)NC45CC(C4)C5)c3)cc12
EC50 ([1]; Hepatitis C virus, Huh-7, 72 h): 70 nM

CNC(=O)c1c(-c2ccc(F)cc2)oc2cc(CC(N)=O)c(-c3ccc(F)c(C(=O)NC45CC(C4)C5)c3)cc12
EC50 ([1]; Hepatitis C virus, Huh-7, 72 h): 10 nM

CCN(c1nc2oc(-c3ccc(F)cc3)c(C(=O)NC)c2cc1-c1cccc(C(=O)NC23CC(C2)C3)c1)S(C)(=O)=O
EC50 ([1]; Hepatitis C virus, Huh-7, 72 h): 2.85 nM | IC50 [2]: 6.8 nM

CNC(=O)c1c(-c2ccc(F)cc2)oc2cc(OCC(F)(F)F)c(-c3ccc(OC)c(C(=O)NC45CC(C4)C5)c3)cc12
EC50 ([1]; Hepatitis C virus, Huh-7, 72 h): 10 nM | IC50 [2]: 4.55 nM

CNC(=O)c1c(-c2ccc(F)cc2)oc2cc(CCC(F)(F)F)c(-c3ccc(F)c(C(=O)NC45CC(C4)C5)c3)c(F)c12
EC50 ([1]; Hepatitis C virus, Huh-7, 72 h): 40 nM

CNC(=O)Cc1cc2oc(-c3ccc(F)cc3)c(C(=O)NC)c2cc1-c1ccc(F)c(C(=O)NC23CC(C2)C3)c1
EC50 ([1]; Hepatitis C virus, Huh-7, 72 h): 50 nM

CNC(=O)c1c(-c2ccc(F)cc2)oc2nc(CCC(F)(F)F)c(-c3csc(C(=O)NC45CC(C4)C5)c3)cc12
EC50 ([1]; Hepatitis C virus, Huh-7, 72 h): 20 nM

CNC(=O)c1c(-c2ccc(F)cc2)oc2cc(CCCO)c(-c3cccc(C(=O)NC45CC(C4)C5)c3)cc12
EC50 ([1]; Hepatitis C virus, Huh-7, 72 h): 3.86 nM | IC50 [2]: 9.56 nM

CNC(=O)c1c(-c2ccc(F)cc2)oc2nc(NCC(F)(F)F)c(-c3cc(C(=O)NC45CC(C4)C5)ccc3OC)cc12
EC50 ([1]; Hepatitis C virus, Huh-7, 72 h): 9.14 nM

CCCc1cc2oc(-c3ccc(F)cc3)c(C(=O)NC)c2cc1-c1cccc(C(=O)NC23CC(C2)C3)c1
EC50 ([1]; Hepatitis C virus, Huh-7, 72 h): 5.82 nM | IC50 [2]: 20 nM

CNC(=O)c1c(-c2ccc(F)cc2)oc2cc(CS(C)(=O)=O)c(-c3cccc(C(=O)NC45CC(C4)C5)c3)cc12
EC50 ([1]; Hepatitis C virus, Huh-7, 72 h): 70 nM

CNC(=O)c1c(-c2ccc(F)cc2)oc2nc(N(CC(F)(F)F)S(C)(=O)=O)c(-c3cccc(C(=O)NC45CC(C4)C5)c3)cc12
EC50 ([1]; Hepatitis C virus, Huh-7, 72 h): 20 nM

CNC(=O)c1c(-c2ccc(F)cc2)oc2cc(OCC(F)(F)F)c(-c3cccc(C(=O)NC45CC(C4)C5)c3)cc12
EC50 ([1]; Hepatitis C virus, Huh-7, 72 h): 10 nM

CNC(=O)c1c(-c2ccc(F)cc2)oc2cc(CC(=O)O)c(-c3cccc(C(=O)NC45CC(C4)C5)c3)cc12
EC50 ([1]; Hepatitis C virus, Huh-7, 72 h): > 10000 nM

CNC(=O)Cc1cc2oc(-c3ccc(F)cc3)c(C(=O)NC)c2cc1-c1cccc(C(=O)NC23CC(C2)C3)c1
EC50 ([1]; Hepatitis C virus, Huh-7, 72 h): 50 nM

CNC(=O)c1c(-c2ccc(F)cc2)oc2cc(CCC(F)(F)F)c(-c3cccc(C(=O)NC45CC(C4)C5)c3)cc12
EC50 ([1]; Hepatitis C virus, Huh-7, 72 h): 30 nM

CNC(=O)c1c(-c2ccc(F)cc2)oc2cc(CC(=O)OC)c(-c3ccc(F)c(C(=O)NC45CC(C4)C5)c3)cc12
EC50 ([1]; Hepatitis C virus, Huh-7, 72 h): 20 nM

CNC(=O)c1c(-c2ccc(F)cc2)oc2cc(CC(=O)N(C)C)c(-c3cccc(C(=O)NC45CC(C4)C5)c3)cc12
EC50 ([1]; Hepatitis C virus, Huh-7, 72 h): 310 nM

CCC(C)c1cc2oc(-c3ccc(F)cc3)c(C(=O)NC)c2cc1-c1cccc(C(=O)NC23CC(C2)C3)c1 (stereo not drawn) [drawing 305]
EC50 [1]: 20 nM

CNC(=O)c1c(-c2ccc(F)cc2)oc2cc(CCC(F)(F)F)c(-c3cccc(C(=O)NC45CC(C4)C5)c3)c(F)c12
EC50 ([1]; Hepatitis C virus, Huh-7, 72 h): 10 nM

CNC(=O)c1c(-c2ccc(F)cc2)oc2cc(CCCOC(=O)c3ccccc3)c(-c3cccc(C(=O)NC45CC(C4)C5)c3)cc12
EC50 ([1]; Hepatitis C virus, Huh-7, 72 h): 140 nM

CNC(=O)c1c(-c2ccc(F)cc2)oc2cc(COC)c(-c3cccc(C(=O)NC45CC(C4)C5)c3)cc12
EC50 ([1]; Hepatitis C virus, Huh-7, 72 h): 6.21 nM

CNC(=O)c1c(-c2ccc(F)cc2)oc2cc(CC(=O)N(C)C)c(-c3ccc(F)c(C(=O)NC45CC(C4)C5)c3)cc12
EC50 ([1]; Hepatitis C virus, Huh-7, 72 h): 520 nM

CNC(=O)c1c(-c2ccc(F)cc2)oc2cc(CC(=O)O)c(-c3ccc(F)c(C(=O)NC45CC(C4)C5)c3)cc12
EC50 ([1]; Hepatitis C virus, Huh-7, 72 h): 8090 nM

CNC(=O)c1c(-c2ccc(F)cc2)oc2cc(N)c(-c3ccc(OC)c(C(=O)NC45CC(C4)C5)c3)cc12
EC50 ([1]; Hepatitis C virus, Huh-7, 72 h): 10 nM
